We go through 13 compounds from patent US20220119375A1, “3-ARYLOXY-3-ARYL-PROPYLAMINE COMPOUND AND USES THEREOF” (Zhangzhou Pien Tze Huang Pharmaceutical Co., Ltd., priority 2018, published 2022).

As a reminder, the IC50 is the concentration needed to halve the response being measured.

For assay [1], the target named is T1, TRPA1 (Mus musculus, UniProt Q8BLA8).
T1 construct: expressed in transfected cells; host or cells: HEK293
Description: IonWorks Barracuda (IWB) automated patch clamp detection of TRPA1 inhibitory activity. The format is cell-based, mouse (mTRPA1). The note with it: for IC50: automated patch clamp (IWB). Here is the method: The inhibitory activity of some compounds in the Examples of present invention on transient receptor potential channel protein TRPA1 was tested in this example. The compound of formula A (WO2010075353) was used as a positive control compound: […]
IonWorks Barracuda (IWB) automated patch clamp detection was used as test method: HEK293 cells stably expressing TRPA1 were placed in DMEM medium containing 15 μg/mL Blasticidin S HCl, 200 μg/mL Hygromycin B and 10% FBS in the T175 culture flask, and cultured in 37° C., 5% CO2 incubator. When the cell density reached about 80%, the culture medium was removed, rinsed with phosphate buffered saline (PBS) without calcium and magnesium. 3 mL of Trypsin was added to digest for 2 min, 7 mL of culture medium was added to terminate the digestion. The cells were collected to 15 mL centrifuge tube and centrifuged at 800 rpm for 3 min. After the supernatant was removed, the cells were added to appropriate volume of extracellular fluid for re-suspending, and the cell density was controlled at 2-3×10^6/mL for IWB experiment. Extracellular fluid formulation (in mM): 140 NaCl, 5 KCl, 1 MgCl2, 10 HEPES, 0.5 EGTA, 10 Glucose (pH 7.4); intracellular fluid formulation (in mM): 140 CsCl, 10 HEPES, 5 EGTA, 0.1 CaCl2, 1 MgCl2 (pH 7.2). 28 mg/mL of amphotericin B was freshly prepared with DMSO on the day of experiment, and then final concentration of 0.1 mg/mL was prepared with intracellular fluid.
Population patch clamp (PPC) plate was used in IWB experiment. The entire detection process was automatically carried out by the instrument. Extracellular fluid was added into 384 wells of PPC plate, and 6 µL of the intracellular fluid was added into plenum (under the PPC plate), 6 µL of cell fluid was added for sealing test, and finally the intracellular fluid in plenum was replaced with amphotericin B-containing intracellular fluid to establish a whole-cell recording mode after perforating sealed cells. The sampling frequency for recording TPRA1 current was 10 kHz, the cells were clamped at 0 mV, the voltage stimulation command (channel protocol) was a ramp voltage from −100 mV to +100 mV for 300 ms. This voltage stimulation was applied every 10 s, mTRPA1 current was induced by 300 µM AITC.
Data recording and current amplitude measurement export were carried out by IWB software (version 2.5.3, Molecular Devices Corporation, Union City, Calif.). No statistics was recorded for holes with sealing impedance lower than 20 MΩ. The original current data was corrected by software for leakage reduction. TRPA1 current amplitude was measured at +100 mV. […] If IC50 value of HC030031 exceeded 3 times the average IC50 value previously obtained on each plate, it would be re-tested. The dose-effect curve of compounds and IC50 were fitted and calculated by GraphPad Prism 5.02 (GraphPad Software, San Diego, Calif.).

The test system of assay [2] is ICR mice, acetic acid writhing pain model. As to the kind of experiment: mice acetic acid writhing pain model. The format is in vivo, mouse. The note with it: 10 mg/kg by gavage, within 30 min; saline group 49 times. The procedure:
Male ICR mice, weighed 22-25 g, were fasted but allowed to drink water freely for 2 h before administration. All ICR mice were weighed and grouped randomly, and the number of animals in each group was >10. […] The test compound was IC-1 (the compound prepared in Example 9), and the administration dosages were 5 mg/kg and 10 mg/kg. […] When concave abdomen, stretched trunk and hind claw, and high buttocks appeared, one number point was recorded. […] After administration, the fewer visceral pains in the mice were, the stronger the analgesic effect of the compound was.
On the technique in general: An intraperitoneal irritant provokes the stretching counted in writhing tests.

For assay [3], the target named is T2, human TRPA1 channel (Homo sapiens, UniProt O75762).
T2 construct: expressed in transfected cells; host or cells: HEK293
Description: manual patch clamp detection of TRPA1 inhibitory activity. It is filed as cell-based. The procedure: The HEK293 cell line stably expressing human TRPA1 channel was placed in T75 culture flask with DMEM medium containing 15 μg/mL Blasticidin S HCl, 200 μg/mL Hygromycin B and 10% FBS, and cultured in incubator at 37° C. and 5% CO2. When the cell density reached about 80%, the culture medium was removed, the residue was rinsed with phosphate buffered saline (PBS) without calcium and magnesium. 2 mL of trypsin was added to digest for 2 minutes, and 8 mL of culture medium was added to terminate the digestion. The cells were collected to 15 mL centrifuge tube and centrifuged at 800 rpm for 3 min. After the supernatant was removed, an appropriate volume of extracellular fluid was added to re-suspend the cells.
In manual patch clamp detection, HEKA system (Patch Master software) was used together with EPC-10 amplifier to record the whole cell current of TRPA1 stably transfected cell line at room temperature. intracellular fluid formulation for whole cell recording was as follows (mM): 140 CsCl, 10 HEPES, 5 EGTA, 0.1 CaCl2, 1 MgCl2 (pH 7.2, osmotic pressure 295-300 mOsm); Ca^2+-free extracellular fluid formulation for recording was as follows (mM): 140 NaCl, 5 KCl, 0.5 EGTA, 1 MgCl2, 10 Glucose, 10 HEPES (pH 7.4, osmotic pressure 300-310 mOsm). Glass microelectrode resistance used for patch clamp recording was 2-4 MΩ, the sampling frequency was 10 kHz, the filter frequency was 2.9 kHz, the cell clamp was 0 mV, and the voltage stimulation command (channel protocol) was a linear voltage from −100 mV to +100 mV for 300 ms, then restored to 0 mV clamping potential. The recording was performed every 2 s. The hTRPA1 current was induced by 100 μM AITC. To ensure the accuracy of current recording, the series resistance was used for 60% compensation during recording.
Data recording and current amplitude measurement export were completed by Patch Master software. Cells with sealing impedance lower than 500 MΩ, w were not included in the statistics. The original current data were corrected by software for leakage reduction, and the hTRPA1 current amplitude was measured at +100 mV. The compound dose-effect curve and IC50 were fitted and calculated by GraphPad Prism 5.02 (GraphPad Software, San Diego, Calif.).

The subject of assay [4] is C57BL/6 mice, formalin pain model. Description: mice formalin pain model (Example 44). The format is in vivo, mouse. The note with it: 20 mg/kg intraperitoneal, phase I (0-10 min) and phase II (10-60 min), vs saline group. Here is the method:
Before the start of experiment, the mice were allowed to adapt to the experimental environment for 72 h without fasting. The test drug was administrated by intraperitoneal injection at a dose of 20 mg/kg, and then the mice were placed in a transparent, ventilated plexiglass cylinder for 1 h, and then 20 μl of 4% formalin solution was injected into the left hind plantar of mice of each group by microinjector. The claw pain response of mice was real-time recorded by miniature camera. The number of times of lifting (1 min/time), shaking (2 min/time), and licking (3 min/time) left claw and the time length of licking left claw were used as indicators of pain response, the cumulative scoring and licking time in two stages of 0-10 min (phase I, acute pain phase) and 10-60 min (phase II, inflammatory pain phase) were observed and recorded, and the statistical analysis was conducted.

For assay [5], the system named is C57 mice, hot plate pain model. As to the kind of experiment: mice hot plate pain model. The format is in vivo, mouse. Particulars: 10 mg/kg intraperitoneal, hot plate 55±0.1° C., within 60 minutes. Here is the method:
SPF-grade C57 male mice were placed at hot plate with constant 55±0.1° C. […] If the pain reaction of mice was observed, the mice were taken out immediately to prevent mice from scalding. […] The test compounds were freshly prepared on the day of administration. 0.9% NaCl physiological saline solution was prepared as solvent for later use. Appropriate amount of test compounds were added into required volume of physiological saline and fully suspended, and the concentration of the drug compound in preparation was 1 mg/ml. The standard volume of administration to mice was 10 ml/kg (or 0.1 ml/10 g). […] The administration volume was 10 ml/kg. […] Hot plate observation index: the reaction time of mice on the hot plate at 55±0.1° C. (Time latency). Measurement and recording were conducted at 3 h before administration and 15 min, 30 min, and 60 min after administration. Maximum possible effect (MPE) % was used to evaluate analgesic effect of each compound, i.e., MPE %=[(Post drug latency-baseline latency)/(30-baseline latency)]×100. MPE % at different time points was recorded. The higher the value of MPE % was, the stronger the analgesic effect of the compound was.

[6] abbreviates: HEK293 cells stably expressing TRPA1, AITC-induced current at +100 mV, read-out: IC50 (μM) on TRPA1 in the patch clamp detection test.

Like-named read-outs stand apart in the source and are kept apart here.

T1 sequence (Q8BLA8 whole entry): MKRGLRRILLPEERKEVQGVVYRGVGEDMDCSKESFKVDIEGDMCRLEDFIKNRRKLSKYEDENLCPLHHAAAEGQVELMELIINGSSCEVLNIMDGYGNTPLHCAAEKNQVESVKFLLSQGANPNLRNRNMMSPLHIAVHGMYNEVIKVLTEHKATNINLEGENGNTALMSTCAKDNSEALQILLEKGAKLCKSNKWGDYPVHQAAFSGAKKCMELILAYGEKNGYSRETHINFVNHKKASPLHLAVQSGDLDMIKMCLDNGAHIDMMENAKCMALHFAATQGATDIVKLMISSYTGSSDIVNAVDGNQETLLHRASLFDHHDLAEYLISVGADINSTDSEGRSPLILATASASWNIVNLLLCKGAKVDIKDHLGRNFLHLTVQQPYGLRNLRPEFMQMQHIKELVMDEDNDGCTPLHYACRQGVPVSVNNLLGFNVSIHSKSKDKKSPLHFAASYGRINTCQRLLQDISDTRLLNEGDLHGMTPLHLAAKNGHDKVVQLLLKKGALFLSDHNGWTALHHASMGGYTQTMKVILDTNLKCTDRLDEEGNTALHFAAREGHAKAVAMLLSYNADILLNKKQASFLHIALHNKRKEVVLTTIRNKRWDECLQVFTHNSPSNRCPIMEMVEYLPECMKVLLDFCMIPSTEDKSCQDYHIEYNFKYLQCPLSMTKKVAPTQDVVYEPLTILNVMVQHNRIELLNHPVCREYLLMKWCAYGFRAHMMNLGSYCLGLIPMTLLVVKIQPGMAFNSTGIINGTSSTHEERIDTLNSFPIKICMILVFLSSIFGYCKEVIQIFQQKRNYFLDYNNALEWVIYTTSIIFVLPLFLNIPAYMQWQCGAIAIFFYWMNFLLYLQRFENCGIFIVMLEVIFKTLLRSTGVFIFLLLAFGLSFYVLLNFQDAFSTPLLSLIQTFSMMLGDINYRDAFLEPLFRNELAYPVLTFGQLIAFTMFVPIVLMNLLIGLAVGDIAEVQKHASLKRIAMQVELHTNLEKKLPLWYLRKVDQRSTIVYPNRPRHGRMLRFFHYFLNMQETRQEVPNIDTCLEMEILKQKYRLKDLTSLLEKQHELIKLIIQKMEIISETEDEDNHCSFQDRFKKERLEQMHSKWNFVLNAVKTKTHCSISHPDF
T2 sequence (O75762 whole entry): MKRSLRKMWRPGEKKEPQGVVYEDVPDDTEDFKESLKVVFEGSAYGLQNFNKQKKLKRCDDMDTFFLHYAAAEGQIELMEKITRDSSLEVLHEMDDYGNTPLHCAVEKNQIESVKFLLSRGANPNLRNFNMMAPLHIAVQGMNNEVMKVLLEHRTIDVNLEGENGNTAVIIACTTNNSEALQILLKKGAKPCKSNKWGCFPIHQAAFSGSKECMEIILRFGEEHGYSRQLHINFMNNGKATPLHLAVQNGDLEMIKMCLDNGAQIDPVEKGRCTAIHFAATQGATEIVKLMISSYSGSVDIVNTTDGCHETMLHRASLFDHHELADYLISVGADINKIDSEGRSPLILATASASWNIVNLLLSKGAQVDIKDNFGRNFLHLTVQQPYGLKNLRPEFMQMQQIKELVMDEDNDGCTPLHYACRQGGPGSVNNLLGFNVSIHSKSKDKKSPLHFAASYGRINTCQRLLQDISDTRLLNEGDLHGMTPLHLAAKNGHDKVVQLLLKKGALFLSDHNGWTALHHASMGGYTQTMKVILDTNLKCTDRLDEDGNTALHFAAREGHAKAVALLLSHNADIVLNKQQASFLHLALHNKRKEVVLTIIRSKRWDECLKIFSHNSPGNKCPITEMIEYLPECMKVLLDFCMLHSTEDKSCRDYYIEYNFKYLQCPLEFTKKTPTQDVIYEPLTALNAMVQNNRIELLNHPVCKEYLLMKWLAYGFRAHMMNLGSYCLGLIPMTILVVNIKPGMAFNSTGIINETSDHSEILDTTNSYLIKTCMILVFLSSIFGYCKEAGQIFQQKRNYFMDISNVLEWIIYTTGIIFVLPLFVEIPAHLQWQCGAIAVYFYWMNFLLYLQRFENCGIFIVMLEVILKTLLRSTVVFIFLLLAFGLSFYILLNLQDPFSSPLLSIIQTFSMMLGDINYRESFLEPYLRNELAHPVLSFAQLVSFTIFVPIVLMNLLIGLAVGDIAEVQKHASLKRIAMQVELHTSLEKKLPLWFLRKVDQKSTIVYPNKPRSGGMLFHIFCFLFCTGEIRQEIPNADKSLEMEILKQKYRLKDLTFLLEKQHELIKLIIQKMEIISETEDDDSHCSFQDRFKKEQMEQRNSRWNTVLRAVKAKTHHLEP

Regarding `CNCC[C@H](Oc1cccc2ccoc12)c1ccoc1` [Compound IC-3, (S)-3-(benzofuran-7-yloxy)-N-methyl-3-(furan-3-yl)propyl-1-amine], the IC50 in assay [1] (setting [6]) is 1 to 5 µM; in assay [1] (read-out: IC50 on TRPA1) it was below 5 µM.

In the case of `CNCC[C@H](Oc1cccc2ccoc12)c1cnco1` [Compound IC-29, (S)-3-(benzofuran-7-yloxy)-N-methyl-3-(oxazol-5-yl)propyl-1-amine], the IC50 in assay [1] (setting [6]) is 5 to 10 µM.

Consider `CN1[C@H]2C[C@H](OC(=O)[C@H](CO)c3ccccc3)C[C@@H]1[C@@H](O)C2` [anisodamine, reference compound], for which the “number of appearance of writhing reaction” value in assay [2] turned out to be 27 times.

On to `CNCC[C@H](Oc1cccc2ccoc12)c1ccsc1` [Compound IC-2, (S)-3-(benzofuran-7-yloxy)-N-methyl-3-(thiophen-3-yl)propyl-1-amine], for which the IC50 in assay [1] (setting [6]) lay in the range of 5 to 10 µM.

`CNCC[C@H](Oc1cccc2c1CCC2)c1cccs1` [Compound IC-10, (S)-3-(2,3-dihydro-1H-inden-4-yloxy)-N-methyl-3-(2-thienyl)propyl-1-amine]: the “the IC50 of compound C1/the IC50 of compound IC-10” value in assay [1] (TRPA1, automated patch clamp) is listed as “about 2.5 fold”. Besides, the IC50 in assay [1] (setting [6]) was 5 to 10 µM; in assay [3] (HEK293 stably expressing human TRPA1, 100 μM AITC, +100 mV), 1.12 µM. The “ratio of IC50 of S configuration of duloxetine to IC50 of the compound, manual patch clamp” value in assay [3] (manual patch clamp) was found to be 3.9. Further, in assay [4], the “analgesic activity, licking time” value is “almost completely inhibited licking claw behavior caused by pain”. Also, the “analgesic effect (MPE %) on hot plate” value in assay [5] was “stronger than those of gabapentin and duloxetine”.

On to `CNCC[C@H](Oc1cccc2ccccc12)c1cccs1` [Duloxetine (R configuration), Duloxetine, reference compound], for which the IC50 in assay [1] (setting [6]) was 20 to 50 µM; in assay [1] (read-out: IC50 on TRPA1) it was 48.5 µM.

`COc1ccc2c(c1)c(CC(=O)O)c(C)n2C(=O)c1ccc(Cl)cc1` [indomethacin, reference compound]: the “number of appearance of writhing reaction” value in assay [2] was determined as 28 times.

In the case of `CN(C)CC[C@H](Oc1cccc2ccoc12)c1cccs1` [Compound IC-8, (S)-3-(benzofuran-7-yloxy)-N,N-dimethyl-3-(thiophen-2-yl)propyl-1-amine], the IC50 in assay [1] (setting [6]) is 1 to 5 µM; in assay [1] (read-out: IC50 on TRPA1), below 5 µM.

Turning to `NCC[C@H](Oc1cccc2ccoc12)c1ccsc1` [Compound IC-26, (S)-3(benzofuran-7-yloxy)-3-(thiophen-3-yl) propyl-1-amine], the IC50 in assay [1] (setting [6]) lay in the range of 5 to 10 µM.

With `NCC[C@H](Oc1cccc2ccoc12)c1cccs1` [Compound IC-23, (S)-3-(benzofuran-7-yloxy)-3-(thiophen-2-yl) propyl-1-amine], the IC50 in assay [1] (setting [6]) was 1 to 5 µM; in assay [1] (read-out: IC50 on TRPA1), below 5 µM. The “analgesic effect (MPE %) on hot plate” value in assay [5] is listed as “very potent analgesic effect”.

`NCC[C@H](Oc1cccc2ccoc12)c1ccco1` [Compound IC-25, (S)-3-(benzofuran-7-yloxy)-3-(furan-2-yl) propyl-1-amine]: in assay [1] (setting [6]), the IC50 is 1 to 5 µM.

`CNCC[C@H](Oc1cccc2ccoc12)c1ccco1` [Compound IC-4, (S)-3-(benzofuran-7-yloxy)-N-methyl-3-(furan-2-yl)propyl-1-amine]: the IC50 in assay [1] (setting [6]) was 1 to 5 µM; in assay [1] (read-out: IC50 on TRPA1) it was below 5 µM.

Consider `NCC[C@H](Oc1cccc2ccoc12)c1ccoc1` [Compound IC-24, (S)-3-(benzofuran-7-yloxy)-3-(furan-3-yl)propyl-1-amine], for which the IC50 was 1 to 5 µM in assay [1] (setting [6]) and below 5 µM in assay [1] (read-out: IC50 on TRPA1).
